Laboratory results published in patent publication US20030013643A1, “Prevention and treatment of streptococcal and staphylococcal infection” (priority 2000, published 2003).

Assays:
[1] = system: wild-type GAS, strain 950771; assay: GAS translocation through polarized human keratinocyte monolayers; format: cell-based, Streptococcus pyogenes; settings: for blocking of translocating GAS: pre-treated 30 minutes with 2 mg/ml, compared to untreated monolayers
Experimental: Human keratinocytes were cultured on 3.0 μm filters to allow polarization and establishment of functional intercellular tight junctions. Cells were infected as described previously with wild-type GAS, strain 950771. To assess the ability of exogenously added HA to inhibit the translocation of GAS through the keratinocyte monolayer, cells were pre-treated for 30 minutes with either 2 mg/ml of hyaluronic acid (HA) or another acidic polysaccharide, alginate (AL), at the same concentration. Aliquots of media from the lower chamber of infected keratinocyte monolayers were cultured on blood agar plates at 1 and 2 hours after inoculation with bacteria to assess the number of translocating bacteria. […] In contrast only 20% and 25% of the wild-type bacteria were blocked by AL at 1 and 2 hours, respectively.
(§1) GAS strains were 950771, an M-type 3 strain originally isolated from a child with necrotizing fasciitis, and 188, an isogenic acapsular mutant derived from 950771 (Ashbaugh, C. D., et al., (1998) J. Clin. Invest. 102, 550-560). Bacteria were cultured in Todd Hewitt broth (Difco, Sparks, Md.) to early exponential phase. For preparation of polarized keratinocyte monolayers, human squamous cell carcinoma cell line, SCC13, derived from cheek epidermis (Cline, P. R. & Rice, R. H. (1983) Cancer Res. 43, 3203-3207) was cultured to confluence in serum-free keratinocyte medium (Gibco BRL, Rockville, Md.) supplemented with 50 μg/ml bovine pituitary extract, 0.1 ng/ml epidermal growth factor and 0.3 mM calcium chloride (c-SFM). Certain experiments were performed also using cell monolayers prepared from OKP7 primary human keratinocytes (Crowe et al. (1991) Differentiation 48, 199-208). Keratinocytes were seeded at 5×10^5 cells per well onto polycarbonate Transwell membrane supports (12-well plates, 3.0 μm pore size; Costar, Corning, N.Y.) and cultured for 6-10 days at 37° C. with 5% CO2 in c-SFM, with daily medium changes. Once confluent, the integrity of the monolayer was assessed routinely by measuring permeability to sodium fluorescein (Tchao, R. (1988) Alternative Methods in Toxicology (eds. Goldberg, A. M.) 271-283 (Ann Liebert, N.Y.) and, in some experiments, by measuring transepithelial electrical resistance (McNamara, B. P., et al. (2001) J Clin Invest 107, 621-9).
Keratinocyte monolayers on Transwells were inoculated with GAS at a multiplicity of infection of 10 per keratinocyte. Monolayers were incubated at 37° C. with 5% CO2. The keratinocyte medium in the upper chamber was replaced two hours after adding GAS, and the Transwell inserts containing the keratinocytes were moved to new wells containing fresh medium every 2 hours to prevent overgrowth of translocated bacteria. Translocation was assessed by quantitative cultures of medium from the lower chamber at 2 hour intervals.
As a model of the movement of GAS from the pharyngeal mucosa or skin surface into underlying tissue, GAS translocation was studied in vitro through keratinocyte monolayers. Two hours after inoculation onto the surface of a confluent keratinocyte monolayer, wild-type GAS was detected in the culture medium below the membrane support, indicating migration of the organisms through the monolayer. At each of several intervals after inoculation, approximately 20 to 100 times as many GAS were recovered below monolayers inoculated with wild-type GAS compared to those inoculated with the acapsular mutant strain.(Figure 12a). […] Compared to wild-type GAS strain 950771, the efficiency of translocation was similar for wild-type GAS strains 87-282, a highly encapsulated M-type 18 strain, and for DLS003, a poorly encapsulated M-type 3 strain. Translocation of wild-type GAS was reduced by 78% at 1 hour in experiments in which the keratinocyte monolayers were pretreated with monoclonal antibody IM7.8.1 to block interaction of the GAS capsule with CD44 . […]

[2] = system: GAS; assay: GAS attachment to murine keratinocyte cell line PAM2.12 with exogenous hyaluronic acid; format: cell-based, Streptococcus pyogenes; settings: control polysaccharide, concentration printed 1 /ml
Experimental: For bacterial adherence assays, keratinocytes were seeded at 10^5 cells per well in collagen-coated tissue culture wells (Nalge Nunc International, Naperville, Ill.), incubated for 3 days at 34° C. in 8% CO2, washed, and overlaid with medium containing 10^6 CFU of GAS per well. After incubation for 1 hour at 34° C. in 8% CO2 the keratinocyte monolayers were washed twice to remove nonadherent bacteria, then the number of cell-associated bacteria was determined by quantitative culture after releasing the keratinocytes with try spin and lysing them in sterile water, experiments testing the effects of exogenous hyaluronic acid on GAS adherence were performed using the mouse keratinocyte cell line, PAM 2.12 (Song, I. S. 2000, Exp. Dermatol. 9:42-52). Cells were seeded in collagen-coated tissue culture wells at 10^5 cells per well, cultured for 3 days at 37° C. in 5% CO2, then inoculated with 10^6 CFU of GAS per well in medium containing exogenous hyaluronic acid (from rooster comb, Sigma Chemicals, St. Louis, Mo.), no inhibitor, or a control polysaccharide, alginic acid, a high-molecular-weight polymer of mannuronic acid and guluronic acid (Protonal Durvillea Alginate, Pronova. Biopolymer, Inc., Portsmouth, N.H.). Cells were incubated for 45 minutes at 37° C. in 5% CO2, then processed for enumeration of adherent bacteria as described above. In experiments to test whether exogenous hyaluronic acid could promote dissociation of GAS attached to keratinocytes, GAS were allowed to attach to keratinocytes in the absence of inhibitor; after 45 minutes, the medium was removed and replaced with fresh medium containing hyaluronic acid, no inhibitor, or alginic acid. After 45 minutes of incubation, the number of adherent bacteria was enumerated as described above.
To investigate the specificity of the interaction between the GAS capsule and CD44 on epithelial cells, the ability of exogenous hyaluronic acid to compete with GAS for binding to murine keratinocytes was examined. Addition of exogenous hyaluronic acid to concentration 1 mg/ml[…], inhibited GAS attachment to the murine keratinocyte cell line PAM2.12 by >95% (P<0.03, FIG. 5). A concentration of 1 /ml alginic acid, another high molecular weight acidic polysaccharide, had no effect, supporting the hypothesis that adherence depends on a specific interaction between the GAS hyaluronic acid capsule and CD44 .
In addition to the 1 mg/ml concentration of hyaluronic acid, additional trials were performed as indicated above, with a range of concentrations of hyaluronic acid added to the cells. The concentrations tested included 4 mg/ml, 2 mg/ml, 1 mg/ml, 0.75 mg/ml, 0.5 mg/ml, 0.25 mg/ml and 0.1 mg/ml. The hyaluronic acid concentrations from 4 mg/ml to 0.25 mg/ml blocked GAS binding by greater than 70%. Hyaluronic acid concentrations from 4 mg/ml to 0.5 mg/ml blocked GAS binding by greater than 80% (FIG. 6).

[3] = system: GAS; assay: GAS translocation through abraded human skin equivalent; format: cell-based, Streptococcus pyogenes; settings: pre-treated at 2 mg/ml for 1 hour; 4 hour infection period
Experimental: To examine GAS translocation in a model system similar to normal human skin, we utilized pseudo-organ cultures of human skin equivalent. This material is made by constructing a “dermis” that consists of human fibroblasts cultured in a collagen matrix; human foreskin keratinocytes are seeded on top of the dermal equivalent and cultured under conditions that promote differentiation into a stratified squamous epithelium with a stratum comeum. The histology of the human skin equivalent is very similar to that of normal human skin except for the absence of non-keratinocyte elements such as blood vessels and hematopoietic cells, nerves, and hair follicles. Since intact human skin is highly resistant to GAS infection, we simulated minor trauma to the superficial epidermis by abrading the surface of the skin equivalent with a cytology brush to introduce breaks in the stratum corneum. GAS were inoculated onto the surface of abraded skin equivalent that had either been pre-treated with nothing, HA, or AL at 2 mg/ml for 1 hour and translocation through the tissue was monitored by culture of GAS from the basal surface of the skin equivalent at intervals. As depicted in FIG. 10, HA inhibited translocation GAS by 91% (solid bars). In comparison the AL control prevented only 14% of bacteria from translocating through the skin equivalent during the 4 hour infection period. […]

[4] = system: human keratinocytes; assay: Immunofluorescent staining of ZO-1 and E-cadherin at intercellular junctions of keratinocytes exposed to GAS; format: cell-based; settings: pretreatment of keratinocytes; wild-type GAS
Experimental: Keratinocyte monolayers were fixed with 4% paraformaldehyde in phosphate buffered saline (PBS), washed, permeabilized with 0.1% Triton X-100 in PBS, then incubated with 0.5% bovine serum albumin in PBS to block non-specific binding sites prior to antibody staining. Primary antibodies included rabbit IgG antibody to GAS group A carbohydrate (ImmuCell, Portland, Me.) at 5 μg/ml, rat monoclonal anti-mouse CD44 (clone IM7.8. 1) (Schrager, H. M., et al., (1998) J. Clin. Invest. 101, 1708-1716) at 15 μg/ml, goat IgG anti-ezrin at 2 μg/ml (Santa Cruz Biotechnology, Santa Cruz, Calif.), goat IgG anti-Rac1 at 2 μg/ml (Santa Cruz Biotechnology), mouse anti-phosphotyrosine at 2 μg/ml (PY-Plus, Zymed Laboratories, Inc., San Francisco, Calif.), rabbit anti-ZO-1 at 2 μg/ml (Zymed), goat anti-E-cadherin at 2 μg/ml (Santa Cruz Biotechnology), and mouse anti-myc monoclonal antibody 9E10 (Santa Cruz Biotechnology). Secondary antibodies included, as appropriate, Texas red- or Alexa 660-conjugated anti-rabbit IgG (Molecular Probes, Eugene, Oreg.), Alexa 568-conjugated anti-rabbit, anti-goat, or anti-rat IgG (Molecular Probes), and FITC-conjugated anti-goat or anti-mouse IgG (Sigma), each diluted 1:250 in 0.5% BSA/PBS. Cellular actin was labeled with 165 nm phalloidin conjugated to Oregon green 514 or to Alexa 488 (Molecular Probes). […]

[5] = system: human keratinocytes; assay: Confocal microscopy of actin projections / lamellipodia in keratinocytes exposed to wild-type GAS; format: cell-based; settings: incubation of keratinocytes with inhibitor
Experimental: as §1, with “Keratinocytes were seeded at 5×10^5 cells per well onto polycarbonate Transwell membrane supports (12-well plates, 3.0 μm pore size; Costar, Corning, N.Y.) and cultured for 6-10 days at 37° C. with 5% CO2 in c-SFM, with daily medium changes.” left out, “621-9). […]” for “621-9).”

Compound | blocking of translocating GAS ([1]; 1 hour after inoculation) [%] | blocking of translocating GAS ([1]; 2 hours after inoculation) [%] | effect on GAS attachment to PAM2.12 [2] | inhibition of translocation of GAS through skin equivalent [3] [%] | reduction of maximum number of translocated GAS ([1]; 250 μM, at 4 hours) | earliest detectable translocation of wild-type GAS ([1]; 250 μM, delayed from 30 min without inhibitor) [h] | redistribution (loss) of ZO-1 and E-cadherin from intercellular junctions [4] | formation of lamellipodia in response to GAS [5]
alginic acid | 20 | 25 | no effect | 14 |  |  |  | 
O=c1c(-c2ccc(O)cc2)coc2cc(O)cc(O)c12 [genistein] |  |  |  |  | approximately 80% | 1 | prevented | inhibit formation of lamellipodia
